Experimental data: US6737383B1, “Herbicidal oxadiazolidines” (priority 1999, dated 2004)

Experiments:
blackgrass = assay: Test B pre/postemergence blackgrass; type: in vivo, Alopecurus myosuroides
In short: (§1)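 Response is a visual 0-to-10 score relative to untreated plants, where 0 means no effect and 10 means complete control, taken twelve to sixteen days after application. Treatments went onto soil at planting and onto foliage of 1- to 4-leaf plants, using a surfactant-containing non-phytotoxic solvent.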

bamyardgrass = assay: Test B flood test barnyardgrass; type: in vivo, Echinochloa crus-galli
In short: (§2)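 Each value is a visual injury score relative to controls, with 10 meaning complete control and 0 no effect. Evaluation took place twelve to sixteen days after the 2-leaf-stage plants were treated and kept in the greenhouse.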

cocklebur = assay: Test B pre/postemergence cocklebur; type: in vivo, Xanthium strumarium; conditions: for Cocklebur plant response rating: scale of 0 to 10 where 0 is no effect and 10 is complete control
In short: as §1

soybean = assay: Test B pre/postemergence soybean; type: in vivo, Glycine max; conditions: for Soybean plant response rating: scale of 0 to 10 where 0 is no effect and 10 is complete control
In short: as §1

smallflower flatsedge = assay: Test B flood test smallflower flatsedge; type: in vivo, Cyperus difformis
In short: as §2

crabgrass = assay: Test B pre/postemergence crabgrass; type: in vivo, Digitaria sanguinalis; conditions: for Crabgrass plant response rating: scale of 0 to 10 where 0 is no effect and 10 is complete control
In short: as §1

corn = assay: Test B pre/postemergence corn; type: in vivo, Zea mays; conditions: for Corn plant response rating: scale of 0 to 10 where 0 is no effect and 10 is complete control
In short: as §1

sugar beet = assay: Test B pre/postemergence sugar beet; type: in vivo, Beta vulgaris; conditions: for Sugarbeets plant response rating: scale of 0 to 10 where 0 is no effect and 10 is complete control
In short: as §1

bedstraw = assay: Test B pre/postemergence bedstraw; type: in vivo, Galium aparine
In short: as §1

surinam grass = assay: Test B pre/postemergence surinam grass; type: in vivo, Brachiaria decumbens
In short: as §1

pigweed = assay: Test B pre/postemergence pigweed; type: in vivo, Amaranthus retroflexus; conditions: for Redroot pigweed plant response rating: scale of 0 to 10 where 0 is no effect and 10 is complete control
In short: as §1

wild oat = assay: Test B pre/postemergence wild oat; type: in vivo, Avena fatua; conditions: for Wild oats plant response rating: scale of 0 to 10 where 0 is no effect and 10 is complete control
In short: as §1

purple nutsedge = assay: Test B pre/postemergence purple nutsedge; type: in vivo, Cyperus rotundus; conditions: for Nutsedge plant response rating: scale of 0 to 10 where 0 is no effect and 10 is complete control
In short: as §1

wheat = assay: Test B pre/postemergence wheat; type: in vivo, Triticum aestivum; conditions: for Wheat plant response rating: scale of 0 to 10 where 0 is no effect and 10 is complete control
In short: as §1

velvetleaf = assay: Test B pre/postemergence velvetleaf; type: in vivo, Abutilon theophrasti; conditions: for Velvetleaf plant response rating: scale of 0 to 10 where 0 is no effect and 10 is complete control
In short: as §1

rape = assay: Test B pre/postemergence rape; type: in vivo, Brassica napus; conditions: for Rape plant response rating: scale of 0 to 10 where 0 is no effect and 10 is complete control
In short: as §1

[1] = Postemergence, Rate 125 g/ha, scale 0 to 10, 0 is no effect, 10 is complete control
[2] = Preemergence, Rate 62 g/ha, scale 0 to 10 (0 no effect, 10 complete control)
[3] = Preemergence, Rate 250 g/ha, scale of 0 to 10 where 0 is no effect and 10 is complete control
[4] = Preemergence, Rate 500 g/ha, scale of 0 to 10 where 0 is no effect and 10 is complete control
[5] = Rate 62 g/ha, Postemergence, scale of 0 to 10 where 0 is no effect and 10 is complete control
[6] = Rate 250 g/ha, Postemergence, scale of 0 to 10 where 0 is no effect and 10 is complete control
[7] = Rate 500 g/ha, Postemergence, scale 0 to 10, 0 no effect, 10 complete control
[8] = Postemergence (flood test), Rate 125 g/ha, scale 0 to 10, 0 is no effect, 10 is complete control
[9] = Rate 62 g/ha, Postemergence (flood test species), scale of 0 to 10 where 0 is no effect and 10 is complete control
[10] = Rate 500 g/ha, listed under Postemergence (flood test species), scale 0 to 10, 0 no effect, 10 complete control

COCC(C)n1c(=O)on(C(=O)N(c2ccc(F)cc2F)C(C)C)c1=O (stereo not drawn) [Compound 352]
Plant response rating, Blackgrass (blackgrass; [1]): 8 | Plant response rating, Blackgrass (blackgrass; [2]): 9 | Blackgrass plant response rating (0 to 10 scale) (blackgrass; Preemergence, Rate 125 g/ha): 10 | Blackgrass plant response rating (blackgrass; [3]): 10 | Blackgrass plant response rating (blackgrass; [4]): 10 | Blackgrass plant response rating (blackgrass; [5]): 8 | Plant response rating, Blackgrass (blackgrass; [6]): 8 | Plant response rating, Blackgrass (blackgrass; [7]): 8 | Plant response rating, Barnyardgrass (bamyardgrass; [8]): 3 | Barnyardgrass plant response rating (bamyardgrass; [9]): 0 | Plant response rating, Barnyardgrass (bamyardgrass; Rate 250 g/ha, Postemergence (flood test species), scale of 0 to 10 where 0 is no effect and 10 is complete control): 3 | Plant response rating, Barnyardgrass (bamyardgrass; [10]): 3 | Plant response rating, Cocklebur (cocklebur; [1]): 0 | Plant response rating, Cocklebur (cocklebur; [2]): 0 | Cocklebur plant response rating (0 to 10 scale) (cocklebur; Preemergence, Rate 125 g/ha): 0 | Cocklebur plant response rating (cocklebur; Preemergence, Rate 250 g/ha): 0 | Cocklebur plant response rating (cocklebur; Preemergence, Rate 500 g/ha): 0 | Cocklebur plant response rating (cocklebur; Rate 62 g/ha, Postemergence): 0 | Plant response rating, Cocklebur (cocklebur; [7]): 0 | Plant response rating, Soybean (soybean; [1]): 2 | Plant response rating, Soybean (soybean; [2]): 0 | Soybean plant response rating (0 to 10 scale) (soybean; Preemergence, Rate 125 g/ha): 0 | Soybean plant response rating (soybean; Preemergence, Rate 250 g/ha): 0 | Soybean plant response rating (soybean; Preemergence, Rate 500 g/ha): 2 | Soybean plant response rating (soybean; Rate 62 g/ha, Postemergence): 2 | Plant response rating, Soybean (soybean; [7]): 4 | Plant response rating, S. Flatsedge (smallflower flatsedge; [8]): 7 | S. Flatsedge plant response rating (smallflower flatsedge; [9]): 2 | Plant response rating, S. Flatsedge (smallflower flatsedge; [10]): 7 | Plant response rating, Crabgrass (crabgrass; [1]): 3 | Plant response rating, Crabgrass (crabgrass; [2]): 9 | Crabgrass plant response rating (0 to 10 scale) (crabgrass; Preemergence, Rate 125 g/ha): 10 | Crabgrass plant response rating (crabgrass; Preemergence, Rate 250 g/ha): 10 | Crabgrass plant response rating (crabgrass; Preemergence, Rate 500 g/ha): 10 | Crabgrass plant response rating (crabgrass; Rate 62 g/ha, Postemergence): 1 | Plant response rating, Crabgrass (crabgrass; [7]): 4 | Plant response rating, Corn (corn; [1]): 0 | Plant response rating, Corn (corn; [2]): 0 | Corn plant response rating (0 to 10 scale) (corn; Preemergence, Rate 125 g/ha): 5 | Corn plant response rating (corn; Preemergence, Rate 250 g/ha): 6 | Corn plant response rating (corn; Preemergence, Rate 500 g/ha): 9 | Corn plant response rating (corn; Rate 62 g/ha, Postemergence): 0 | Plant response rating, Corn (corn; [7]): 6 | Plant response rating, Sugarbeets (sugar beet; [1]): 0 | Plant response rating, Sugarbeets (sugar beet; [2]): 2 | Sugarbeets plant response rating (0 to 10 scale) (sugar beet; Preemergence, Rate 125 g/ha): 3 | Sugarbeets plant response rating (sugar beet; Preemergence, Rate 250 g/ha): 3 | Sugarbeets plant response rating (sugar beet; Preemergence, Rate 500 g/ha): 7 | Sugarbeets plant response rating (sugar beet; Rate 62 g/ha, Postemergence): 0 | Plant response rating, Sugarbeets (sugar beet; [7]): 0 | Plant response rating, Bedstraw (bedstraw; [1]): 0 | Plant response rating, Bedstraw (bedstraw; [2]): 0 | Bedstraw plant response rating (0 to 10 scale) (bedstraw; Preemergence, Rate 125 g/ha): 0 | Bedstraw plant response rating (bedstraw; [5]): 0 | Plant response rating, Bedstraw (bedstraw; [6]): 2 | Plant response rating, Bedstraw (bedstraw; [7]): 4 | Plant response rating, B. signalgrass (surinam grass; [1]): 2 | Plant response rating, B. signalgrass (surinam grass; [2]): 2 | B. signalgrass plant response rating (0 to 10 scale, 0 is no effect, 10 is complete control) (surinam grass; Preemergence, Rate 125 g/ha): 6 | B. signalgrass plant response rating (surinam grass; [3]): 7 | B. signalgrass plant response rating (surinam grass; [4]): 7 | B. signalgrass plant response rating (surinam grass; [5]): 0 | Plant response rating, B. signalgrass (surinam grass; [6]): 7 | Plant response rating, B. signalgrass (surinam grass; [7]): 7 | Plant response rating, Redroot pigweed (pigweed; [1]): 3 | Redroot pigweed plant response rating (0 to 10 scale) (pigweed; Preemergence, Rate 125 g/ha): 3 | Redroot pigweed plant response rating (pigweed; Preemergence, Rate 250 g/ha): 10 | Redroot pigweed plant response rating (pigweed; Preemergence, Rate 500 g/ha): 10 | Redroot pigweed plant response rating (pigweed; Rate 62 g/ha, Postemergence): 0 | Plant response rating, Redroot pigweed (pigweed; [7]): 4 | Plant response rating, Wild oats (wild oat; [1]): 0 | Plant response rating, Wild oats (wild oat; [2]): 8 | Wild oats plant response rating (0 to 10 scale) (wild oat; Preemergence, Rate 125 g/ha): 8 | Wild oats plant response rating (wild oat; Preemergence, Rate 250 g/ha): 9 | Wild oats plant response rating (wild oat; Preemergence, Rate 500 g/ha): 10 | Wild oats plant response rating (wild oat; Rate 62 g/ha, Postemergence): 0 | Plant response rating, Wild oats (wild oat; [7]): 7 | Plant response rating, Nutsedge (purple nutsedge; [1]): 0 | Plant response rating, Nutsedge (purple nutsedge; [2]): 0 | Nutsedge plant response rating (0 to 10 scale) (purple nutsedge; Preemergence, Rate 125 g/ha): 0 | Nutsedge plant response rating (purple nutsedge; Preemergence, Rate 250 g/ha): 0 | Nutsedge plant response rating (purple nutsedge; Preemergence, Rate 500 g/ha): 0 | Nutsedge plant response rating (purple nutsedge; Rate 62 g/ha, Postemergence): 0 | Plant response rating, Nutsedge (purple nutsedge; [7]): 2 | Plant response rating, Wheat (wheat; [1]): 3 | Plant response rating, Wheat (wheat; [2]): 0 | Wheat plant response rating (0 to 10 scale) (wheat; Preemergence, Rate 125 g/ha): 0 | Wheat plant response rating (wheat; Preemergence, Rate 250 g/ha): 2 | Wheat plant response rating (wheat; Preemergence, Rate 500 g/ha): 6 | Wheat plant response rating (wheat; Rate 62 g/ha, Postemergence): 0 | Plant response rating, Wheat (wheat; [7]): 7 | Plant response rating, Velvetleaf (velvetleaf; [1]): 0 | Plant response rating, Velvetleaf (velvetleaf; [2]): 2 | Velvetleaf plant response rating (0 to 10 scale) (velvetleaf; Preemergence, Rate 125 g/ha): 4 | Velvetleaf plant response rating (velvetleaf; Preemergence, Rate 250 g/ha): 6 | Velvetleaf plant response rating (velvetleaf; Preemergence, Rate 500 g/ha): 7 | Velvetleaf plant response rating (velvetleaf; Rate 62 g/ha, Postemergence): 0 | Plant response rating, Velvetleaf (velvetleaf; [7]): 3 | Plant response rating, Rape (rape; [1]): 0 | Plant response rating, Rape (rape; [2]): 0 | Rape plant response rating (0 to 10 scale) (rape; Preemergence, Rate 125 g/ha): 0 | Rape plant response rating (rape; Preemergence, Rate 250 g/ha): 0 | Rape plant response rating (rape; Preemergence, Rate 500 g/ha): 7 | Rape plant response rating (rape; Rate 62 g/ha, Postemergence): 0 | Plant response rating, Rape (rape; [7]): 0
